Test results taken from patent US11572399B2, “Long-acting GIP peptide analogues” (University of Copenhagen, priority 2017, dated 2023).
Read-outs that look alike come from different tables or passages of the source. Numbered stars: 1 amine (or outer) side, 2 acyl side, 3 side chain; on linkers, the order of the positions; unused ones are H or OH. Side chains are listed from the residue outwards. Peptide text beside a SMILES is read from it. * marks the point of attachment. γGlu = O=C(O)[C@H](CCC(=O)[*:2])N[*:1]; Palmitoyl = CCCCCCCCCCCCCCCC(=O)*; AEEA = NCCOCCOCC(=O)O; GABA = NCCCC(=O)O

Legend:
[1] = biological target: T1, human GIP receptor (Homo sapiens, UniProt P48546); experiment: cAMP accumulation assay, agonism (ligand alone); assay type: cell-based; details: COS-7 cells, Table 1; for Emax: COS-7, intrinsic cAMP activity
T1 construct: host or cells: COS-7, transient transfection (calcium phosphate), cDNA in pCMV-Script
T1 sequence (P48546 22-466): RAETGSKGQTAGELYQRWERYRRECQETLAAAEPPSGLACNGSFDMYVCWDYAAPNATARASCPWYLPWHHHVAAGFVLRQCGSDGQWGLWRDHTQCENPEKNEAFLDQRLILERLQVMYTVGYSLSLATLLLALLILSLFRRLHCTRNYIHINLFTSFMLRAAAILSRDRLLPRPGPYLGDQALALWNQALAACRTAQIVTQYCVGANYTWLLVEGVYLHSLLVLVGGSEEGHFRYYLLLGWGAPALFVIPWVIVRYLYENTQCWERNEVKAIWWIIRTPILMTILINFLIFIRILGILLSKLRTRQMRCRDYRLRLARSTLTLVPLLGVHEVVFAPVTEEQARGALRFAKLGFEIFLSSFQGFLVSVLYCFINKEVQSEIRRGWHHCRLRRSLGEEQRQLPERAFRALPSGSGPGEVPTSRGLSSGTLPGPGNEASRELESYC

[2] = biological target: T1, human GIP receptor; experiment: 125I-human GIP competition binding assay, in the presence and absence of 2% HSA;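 note: nonspecific binding taken as radioligand bound to untransfected cells, IC50 obtained from nonlinear regression fits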
Method: Transient transfection of the COS-7 cells for cAMP accumulation and competition binding was performed using the calcium phosphate precipitation method with the addition of chloroquine^46-47.
Transient transfected COS-7 cells expressing the human GIP receptor were seeded in clear 96-well plates the day after transfection using a number of cells/well that obtained 5-10% specific binding of the added radioactive ligand. The following day, cells were assayed by competition binding for 3 h at 4° C. using 15-40 pM 125 I-human GIP as well as increasing concentrations unlabeled ligand in 50 mM Hepes buffer (pH 7.2) in the presence and absence of 2% HSA. After incubation, the cells were washed twice in ice-cold binding buffer (+/−2% HSA) and lysed using 200 mM NaOH with 1% SDS for 30 min. Nonspecific binding was determined as the binding of radioactive ligand to untransfected cells.
IC50, EC50, and Ki values were determined by nonlinear regression. […] Ki values were based on the formula for one class of binding sites in homologous competition binding studies and the Cheng Prussoffs formula, respectively (DeBlasi et al., 1989). To determine the HSA binding potential, the fold change in affinity (as determined by IC50) was calculated as IC50 (plus HSA)/IC50 (minus HSA).

[3] = biological target: T1, human GIP receptor; experiment: cAMP accumulation assay, antagonism of a GIP-mediated cAMP response (50-80% of max); assay type: cell-based; details: Table 5
Method: The day after, the cells were washed twice with Hepes buffered saline (HBS) buffer and incubated with HBS and 1 mM 3-isobutyl-1-methylxanthine (IBMX) for 30 min at 37° C. […] The HitHunter™ cAMP XS assay (DiscoveRx) was carried out according to the manufacturer's instructions.

[4] = heterologous competition binding, transiently transfected COS-7 cells expressing the human GIP receptor, read-out: Binding

SMILES | Emax [1] | IC50 [2, 4] | further results
CC[C@H](C)[C@H](NC(=O)[C@H](CO)NC(=O)[C@H](Cc1ccc(O)cc1)NC(=O)[C@H](CC(=O)O)NC(=O)[C@H](CO)NC(=O)[C@@H](NC(=O)[C@H](Cc1ccccc1)NC(=O)[C@@H](N)[C@@H](C)O)[C@@H](C)CC)C(=O)N[C@@H](C)C(=O)N[C@@H](CCSC)C(=O)N[C@@H](CC(=O)O)C(=O)N[C@@H](CCCCNC(=O)CCCCCCCCCCCCCCCCC(=O)O)C(=O)N[C@H](C(=O)N[C@@H](Cc1c[nH]cn1)C(=O)N[C@@H](CCC(N)=O)C(=O)N[C@@H](CCC(N)=O)C(=O)N[C@@H](CC(=O)O)C(=O)N[C@@H](Cc1ccccc1)C(=O)N[C@H](C(=O)N[C@@H](CC(N)=O)C(=O)N[C@@H](Cc1c[nH]c2ccccc12)C(=O)N[C@@H](CC(C)C)C(=O)N[C@@H](CC(C)C)C(=O)N[C@@H](C)C(=O)N[C@@H](CCC(N)=O)C(=O)N[C@@H](CCCCN)C(N)=O)C(C)C)[C@@H](C)CC [AT141, [hGIP(5-30)NH2—C18diacid/16]] | 0% | 1900 nM | Fold change HSA (2%)/Casein (0.1%) ([2]; IC50 (plus HSA)/IC50 (minus HSA)): 6.5; IC50 ([2]; binding in 0.1% casein (absence of HSA), log value, read-out: logIC50 0.1% casein (converted)): 2000 nM
CCCCCCCCCCCC(=O)N[C@@H](CCC(=O)O)C(=O)NCC(=O)N[C@H](C(=O)N[C@@H](Cc1ccccc1)C(=O)N[C@H](C(=O)N[C@@H](CO)C(=O)N[C@@H](CC(=O)O)C(=O)N[C@@H](Cc1ccc(O)cc1)C(=O)N[C@@H](CO)C(=O)N[C@H](C(=O)N[C@@H](C)C(=O)N[C@@H](CCSC)C(=O)N[C@@H](CC(=O)O)C(=O)N[C@@H](CCCCN)C(=O)N[C@H](C(=O)N[C@@H](Cc1c[nH]cn1)C(=O)N[C@@H](CCC(N)=O)C(=O)N[C@@H](CCC(N)=O)C(=O)N[C@@H](CC(=O)O)C(=O)N[C@@H](Cc1ccccc1)C(=O)N[C@H](C(=O)N[C@@H](CC(N)=O)C(=O)N[C@@H](Cc1c[nH]c2ccccc12)C(=O)N[C@@H](CC(C)C)C(=O)N[C@@H](CC(C)C)C(=O)N[C@@H](C)C(=O)N[C@@H](CCC(N)=O)C(=O)N[C@@H](CCCCN)C(N)=O)C(C)C)[C@@H](C)CC)[C@@H](C)CC)[C@@H](C)CC)[C@@H](C)O [AT148, [hGIP(3-30)NH2—C12/3]] | 43% | 24 nM | EC50 ([1]; read-out: cAMP agonism nM (EC50)): 13 nM
CCCCCCCCCCCC(=O)NCCCC[C@H](NC(=O)[C@H](CC(=O)O)NC(=O)[C@H](CCSC)NC(=O)[C@H](C)NC(=O)[C@@H](NC(=O)[C@H](CO)NC(=O)[C@H](Cc1ccc(O)cc1)NC(=O)[C@H](CC(=O)O)NC(=O)[C@H](CO)NC(=O)[C@@H](NC(=O)[C@H](Cc1ccccc1)NC(=O)[C@@H](NC(=O)CNC(=O)[C@@H](N)CCC(=O)O)[C@@H](C)O)[C@@H](C)CC)[C@@H](C)CC)C(=O)N[C@H](C(=O)N[C@@H](CCCNC(=N)N)C(=O)N[C@@H](CCC(N)=O)C(=O)N[C@@H](CCC(N)=O)C(=O)N[C@@H](CC(=O)O)C(=O)N[C@@H](Cc1ccccc1)C(=O)N[C@H](C(=O)N[C@@H](CC(N)=O)C(=O)N[C@@H](Cc1c[nH]c2ccccc12)C(=O)N[C@@H](CC(C)C)C(=O)N[C@@H](CC(C)C)C(=O)N[C@@H](C)C(=O)N[C@@H](CCC(N)=O)C(=O)N[C@@H](CCCNC(=N)N)C(N)=O)C(C)C)[C@@H](C)CC [AT153, [hGIP(3-30)NH2[H18R; K30R]-C12/16]] | 0% | 316 nM | –
CCCCCCCCCCCC(=O)NCCCC[C@H](NC(=O)[C@H](CC(=O)O)NC(=O)[C@H](CCSC)NC(=O)[C@H](C)NC(=O)[C@@H](NC(=O)[C@H](CO)NC(=O)[C@H](Cc1ccc(O)cc1)NC(=O)[C@H](CC(=O)O)NC(=O)[C@H](CO)NC(=O)[C@@H](NC(=O)[C@H](Cc1ccccc1)NC(=O)[C@@H](NC(=O)CNC(=O)[C@@H](N)CCC(=O)O)[C@@H](C)O)[C@@H](C)CC)[C@@H](C)CC)C(=O)N[C@H](C(=O)N[C@@H](Cc1c[nH]cn1)C(=O)N[C@@H](CCC(N)=O)C(=O)N[C@@H](CCC(N)=O)C(=O)N[C@@H](CC(=O)O)C(=O)N[C@@H](Cc1ccccc1)C(=O)N[C@H](C(=O)N[C@@H](CC(N)=O)C(=O)N[C@@H](Cc1c[nH]c2ccccc12)C(=O)N[C@@H](CC(C)C)C(=O)N[C@@H](CC(C)C)C(=O)N[C@@H](C)C(=O)N[C@@H](CCC(N)=O)C(=O)N[C@@H](CCCCN)C(N)=O)C(C)C)[C@@H](C)CC [AT154, [hGIP(3-30)NH2—C12/16]] | – | 27 nM | cAMP agonism Emax ([1]; intrinsic cAMP activity): 0%
CCCCCCCCCCCCCCCCCC(=O)NCCCC[C@H](NC(=O)[C@H](CC(=O)O)NC(=O)[C@H](CCSC)NC(=O)[C@H](C)NC(=O)[C@@H](NC(=O)[C@H](CO)NC(=O)[C@H](Cc1ccc(O)cc1)NC(=O)[C@H](CC(=O)O)NC(=O)[C@H](CO)NC(=O)[C@@H](NC(=O)[C@H](Cc1ccccc1)NC(=O)[C@@H](NC(=O)CNC(=O)[C@@H](N)CCC(=O)O)[C@@H](C)O)[C@@H](C)CC)[C@@H](C)CC)C(=O)N[C@H](C(=O)N[C@@H](CCCNC(=N)N)C(=O)N[C@@H](CCC(N)=O)C(=O)N[C@@H](CCC(N)=O)C(=O)N[C@@H](CC(=O)O)C(=O)N[C@@H](Cc1ccccc1)C(=O)N[C@H](C(=O)N[C@@H](CC(N)=O)C(=O)N[C@@H](Cc1c[nH]c2ccccc12)C(=O)N[C@@H](CC(C)C)C(=O)N[C@@H](CC(C)C)C(=O)N[C@@H](C)C(=O)N[C@@H](CCC(N)=O)C(=O)N[C@@H](CCCNC(=N)N)C(N)=O)C(C)C)[C@@H](C)CC [AT162, [hGIP(3-30)NH2[H18R; K30R]-C18/16]] | 44% | – | Fold change in affinity, IC50 (plus HSA)/IC50 (minus HSA) ([2]; presence vs absence of 2% HSA, proxy for albumin binding): 5.6 fold
CCCCCCCCCCCCCCCC(=O)NCCCC[C@H](NC(=O)[C@H](CC(=O)O)NC(=O)[C@H](CCSC)NC(=O)[C@H](C)NC(=O)[C@@H](NC(=O)[C@H](CO)NC(=O)[C@H](Cc1ccc(O)cc1)NC(=O)[C@H](CC(=O)O)NC(=O)[C@H](CO)NC(=O)[C@@H](NC(=O)[C@H](Cc1ccccc1)NC(=O)[C@@H](NC(=O)CNC(=O)[C@@H](N)CCC(=O)O)[C@@H](C)O)[C@@H](C)CC)[C@@H](C)CC)C(=O)N[C@H](C(=O)N[C@@H](CCCCN)C(=O)N[C@@H](CCC(N)=O)C(=O)N[C@@H](CCC(N)=O)C(=O)N[C@@H](CC(=O)O)C(=O)N[C@@H](Cc1ccccc1)C(=O)N[C@H](C(=O)N[C@@H](CC(N)=O)C(=O)N[C@@H](Cc1c[nH]c2ccccc12)C(=O)N[C@@H](CC(C)C)C(=O)N[C@@H](CC(C)C)C(=O)N[C@@H](C)C(=O)N[C@@H](CCC(N)=O)C(=O)N[C@@H](CCCCN)C(N)=O)C(C)C)[C@@H](C)CC [AT163, [hGIP(3-30)NH2[H18K]-C16/16]] (H-EGTFISDYSIAMDK(Palmitoyl)IKQQDFVNWLLAQK-NH2; N-terminus assumed) | 0% | 205 nM | –
CCCCCCCCCCCCCCCC(=O)NCCCC(=O)NCCCC[C@H](NC(=O)[C@@H](NC(=O)[C@H](CCCCN)NC(=O)[C@H](CC(=O)O)NC(=O)[C@H](CCSC)NC(=O)[C@H](C)NC(=O)[C@@H](NC(=O)[C@H](CO)NC(=O)[C@H](Cc1ccc(O)cc1)NC(=O)[C@H](CC(=O)O)NC(=O)[C@H](CO)NC(=O)[C@@H](NC(=O)[C@H](Cc1ccccc1)NC(=O)[C@@H](NC(=O)CNC(=O)[C@@H](N)CCC(=O)O)[C@@H](C)O)[C@@H](C)CC)[C@@H](C)CC)[C@@H](C)CC)C(=O)N[C@@H](CCC(N)=O)C(=O)N[C@@H](CCC(N)=O)C(=O)N[C@@H](CC(=O)O)C(=O)N[C@@H](Cc1ccccc1)C(=O)N[C@H](C(=O)N[C@@H](CC(N)=O)C(=O)N[C@@H](Cc1c[nH]c2ccccc12)C(=O)N[C@@H](CC(C)C)C(=O)N[C@@H](CC(C)C)C(=O)N[C@@H](C)C(=O)N[C@@H](CCC(N)=O)C(=O)N[C@@H](CCCCN)C(N)=O)C(C)C [AT165, [hGIP(3-30)NH2[H18K]-C16/18+y-aminobuturic acid]] (H-EGTFISDYSIAMDKIK([GABA-Palmitoyl])QQDFVNWLLAQK-NH2; N-terminus assumed) | – | – | Fold change from GIP(3-30)NH2 (increase in potency) [3]: 2.9 fold
CCCCCCCCCCCCCCCC(=O)NCCOCCOCC(=O)N[C@@H](CCC(=O)NCCCC[C@H](NC(=O)[C@@H](NC(=O)[C@H](CCCCN)NC(=O)[C@H](CC(=O)O)NC(=O)[C@H](CCSC)NC(=O)[C@H](C)NC(=O)[C@@H](NC(=O)[C@H](CO)NC(=O)[C@H](Cc1ccc(O)cc1)NC(=O)[C@H](CC(=O)O)NC(=O)[C@H](CO)NC(=O)[C@@H](NC(=O)[C@H](Cc1ccccc1)NC(=O)[C@@H](NC(=O)CNC(=O)[C@@H](N)CCC(=O)O)[C@@H](C)O)[C@@H](C)CC)[C@@H](C)CC)[C@@H](C)CC)C(=O)N[C@@H](CCC(N)=O)C(=O)N[C@@H](CCC(N)=O)C(=O)N[C@@H](CC(=O)O)C(=O)N[C@@H](Cc1ccccc1)C(=O)N[C@H](C(=O)N[C@@H](CC(N)=O)C(=O)N[C@@H](Cc1c[nH]c2ccccc12)C(=O)N[C@@H](CC(C)C)C(=O)N[C@@H](CC(C)C)C(=O)N[C@@H](C)C(=O)N[C@@H](CCC(N)=O)C(=O)N[C@@H](CCCCN)C(N)=O)C(C)C)C(=O)O [AT167, [hGIP(3-30)NH2[H18K]-C16/18+y-glutamic acid+8-amino-3,6-dioxaoctanoic acid]] (H-EGTFISDYSIAMDKIK([γGlu-AEEA-Palmitoyl])QQDFVNWLLAQK-NH2) | – | – | Fold change from GIP(3-30)NH2 (increase in potency) [3]: 14.8 fold
